Literature values as cited in patent publication US20140127235A1, “TARGETING HK alpha FOR CONTROLLING BLOOD PRESSURE AND REGULATING ELECTROLYTE BALANCE” (UNIVERSITY OF FLORIDA RESEARCH FOUNDATION, INC., priority 2011, published 2014).

Key:
[1] = system: HKa2 mRNA; details: progesterone alone (Elabida et al., 2011); cited from earlier work
[2] = biological target: HKα1-containing H^+,K^+-ATPases (Homo sapiens, UniProt P20648); details: subsequent studies; cited from earlier work
[3] = system: H^+,K^+-ATPase; details: rats, seven days low, normal or high aldosterone levels, normal and high K+ diets; cited from earlier work

HKα1-containing H^+,K^+-ATPases, sequence (P20648 whole entry): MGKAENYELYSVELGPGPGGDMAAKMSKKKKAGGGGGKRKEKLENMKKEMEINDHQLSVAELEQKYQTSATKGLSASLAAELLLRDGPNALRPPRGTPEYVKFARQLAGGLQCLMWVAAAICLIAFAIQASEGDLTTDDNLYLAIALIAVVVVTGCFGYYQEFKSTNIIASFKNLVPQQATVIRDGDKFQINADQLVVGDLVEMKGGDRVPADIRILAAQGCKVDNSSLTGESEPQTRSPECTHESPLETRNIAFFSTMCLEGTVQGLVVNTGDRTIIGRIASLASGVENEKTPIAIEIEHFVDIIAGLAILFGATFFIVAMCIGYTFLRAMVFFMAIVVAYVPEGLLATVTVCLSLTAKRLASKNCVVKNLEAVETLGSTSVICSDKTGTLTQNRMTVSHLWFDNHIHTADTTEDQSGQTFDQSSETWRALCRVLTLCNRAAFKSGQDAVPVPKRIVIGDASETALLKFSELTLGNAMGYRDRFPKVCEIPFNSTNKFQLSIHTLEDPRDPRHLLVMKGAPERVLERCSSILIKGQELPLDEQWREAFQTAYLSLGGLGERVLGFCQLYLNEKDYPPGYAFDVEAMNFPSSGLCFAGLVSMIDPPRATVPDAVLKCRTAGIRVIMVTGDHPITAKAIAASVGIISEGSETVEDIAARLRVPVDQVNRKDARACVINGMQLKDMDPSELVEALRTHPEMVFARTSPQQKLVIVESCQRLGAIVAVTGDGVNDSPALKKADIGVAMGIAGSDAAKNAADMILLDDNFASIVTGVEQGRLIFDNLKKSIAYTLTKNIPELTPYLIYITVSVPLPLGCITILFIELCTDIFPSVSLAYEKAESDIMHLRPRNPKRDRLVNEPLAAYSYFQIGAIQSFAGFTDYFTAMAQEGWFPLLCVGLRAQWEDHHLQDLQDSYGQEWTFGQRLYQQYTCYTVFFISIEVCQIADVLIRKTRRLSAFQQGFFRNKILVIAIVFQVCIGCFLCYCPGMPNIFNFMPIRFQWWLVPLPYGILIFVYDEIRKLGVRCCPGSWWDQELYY
HKα1-containing H^+,K^+-ATPases, sequence (P51164 whole entry partner): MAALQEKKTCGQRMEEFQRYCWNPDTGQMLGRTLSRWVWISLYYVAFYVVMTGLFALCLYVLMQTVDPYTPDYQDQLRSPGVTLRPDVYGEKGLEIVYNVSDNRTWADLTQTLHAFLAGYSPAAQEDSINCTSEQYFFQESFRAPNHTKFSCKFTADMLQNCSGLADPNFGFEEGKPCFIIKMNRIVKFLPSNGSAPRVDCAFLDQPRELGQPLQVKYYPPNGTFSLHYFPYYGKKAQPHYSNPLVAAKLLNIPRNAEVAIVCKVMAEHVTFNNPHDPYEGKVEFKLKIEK

## CC(=O)[C@H]1CC[C@H]2[C@@H]3CCC4=CC(=O)CC[C@]4(C)[C@H]3CC[C@]12C [progesterone]
[1]
  effect on renal HKa2 mRNA expression: stimulated

## Cc1nc2c(OCc3ccccc3)cccn2c1CC#N [Schering 28080]
[2]
  H+,K+-ATPase isoform inhibited: only inhibit the HKα1-containing H^+,K^+-ATPases

## C[C@]12CCC(=O)C=C1CC[C@@H]1[C@@H]2[C@@H](O)C[C@]2(C=O)[C@@H](C(=O)CO)CC[C@@H]12 [aldosterone]
[3]
  effect on Schering 28080-sensitive ATPase activity: did not significantly affect
